Assay results published in US9957264B2 (Merck Sharp & Dohme Corp., priority 2013, dated 2018).

How the values were obtained:
[1] = target: JAK1 (recombinant purified GST-tagged catalytic domain) (Homo sapiens (Human), UniProt P23458); test: Jak Biochemical HTRF Assay (JAK1); conditions: [ATP] 31.8 μM
Outline: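 Read-out is the 665/615 nm time-resolved FRET ratio from Eu-pY20 antibody and streptavidin-Dylight 650 bound to phosphorylated biotin-peptide. Reactions ran 120 min at room temperature after ATP start. Inhibition normalized to untreated controls gave IC50 via 4-parameter fit.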

[2] = target: JAK2 (recombinant purified GST-tagged catalytic domain) (Homo sapiens (Human), UniProt O60674); test: Jak Biochemical HTRF Assay (JAK2); conditions: [ATP] 8.5 μM
Chain of JAK2 (recombinant purified GST-tagged catalytic domain) (O60674 849-1124): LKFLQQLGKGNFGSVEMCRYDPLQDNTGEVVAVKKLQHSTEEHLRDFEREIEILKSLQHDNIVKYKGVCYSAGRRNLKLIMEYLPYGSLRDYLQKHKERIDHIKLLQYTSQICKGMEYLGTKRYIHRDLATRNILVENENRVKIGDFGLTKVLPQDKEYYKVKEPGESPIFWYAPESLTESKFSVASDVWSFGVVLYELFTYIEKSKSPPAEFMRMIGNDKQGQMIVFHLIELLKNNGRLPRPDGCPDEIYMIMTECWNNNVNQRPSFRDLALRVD

Chain of JAK1 (recombinant purified GST-tagged catalytic domain) (P23458 875-1153): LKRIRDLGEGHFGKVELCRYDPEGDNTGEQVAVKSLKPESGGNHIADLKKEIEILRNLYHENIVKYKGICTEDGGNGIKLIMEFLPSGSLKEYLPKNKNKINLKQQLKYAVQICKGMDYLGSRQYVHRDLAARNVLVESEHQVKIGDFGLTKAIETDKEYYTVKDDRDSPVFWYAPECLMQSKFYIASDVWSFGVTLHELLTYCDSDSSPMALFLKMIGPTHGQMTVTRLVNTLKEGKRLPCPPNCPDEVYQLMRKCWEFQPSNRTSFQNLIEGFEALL

IC50 [1] | IC50 [2] | Structure (SMILES)
2010 pM | 2010 pM | Cc1cc(Nc2nn(C3(CC#N)CCN(c4cc(C(F)(F)F)ccn4)CC3)c3cc[nH]c(=O)c23)ccc1C(=O)N1CCC(F)(F)CC1 [Example 16-4, 2-(4-(3-(4-(4,4-difluoropiperidine-1-carbonyl)-3-methylphenylamino)-4-oxo-4,5-dihydropyrazolo[4,3-c]pyridin-1-yl)-1-(4-(trifluoromethyl)pyridin-2-yl)piperidin-4-yl)acetonitrile]
230 pM | 350 pM | Cc1cc(Nc2nn([C@]3(CC#N)CC[C@@H](C(=O)OC(C)(C)C)OC3)c3cc[nH]c(=O)c23)ccc1C(=O)N1CCOC(C)C1 (single isomer, unassigned) [Example 20-11, (2S,5S)-tert-butyl 5-(cyanomethyl)-5-(3-((3-methyl-4-((S or R)-2-methylmorpholine-4-carbonyl)phenyl)amino)-4-oxo-4,5-dihydro-1H-pyrazolo[4,3-c]pyridin-1-yl)tetrahydro-2H-pyran-2-carboxylate]
14000 pM | 130000 pM | N#CC[C@]1(n2nc(Nc3ccc(Cl)cc3)c3c(=O)[nH]ccc32)CCOC1 (single isomer, unassigned) [Example 5-242, [(3S or 3R)-3-{3-[(4-chlorophenyl)amino]-4-oxo-4,5-dihydro-1H-pyrazolo[4,3-c]pyridin-1-yl}tetrahydrofuran-3-yl]acetonitrile]
2290 pM | 16700 pM | N#CC[C@@]1(n2nc(Nc3ccc(C#N)cc3)c3c(=O)[nH]ccc32)CCOC1 (single isomer, unassigned) [Example 5-239, 4-({1-[(3R or 3S)-3-(cyanomethyl)tetrahydrofuran-3-yl]-4-oxo-4,5-dihydro-1H-pyrazolo[4,3-c]pyridin-3-yl}amino)benzonitrile]
310 pM | 1090 pM | CSCCOC(=O)N1CCC(CC#N)(n2nc(Nc3ccc(S(=O)(=O)N(C)C)cc3)c3c(=O)[nH]ccc32)CC1 [Example 11-3, 2-(methylthio)ethyl 4-(cyanomethyl)-4-(3-((4-(N,N-dimethylsulfamoyl)phenyl)amino)-4-oxo-4,5-dihydro-1H-pyrazolo[4,3-c]pyridin-1-yl)piperidine-1-carboxylate]
140 pM | 170 pM | Cc1cc(Nc2nn([C@]3(CC#N)CC[C@@H](C(=O)OC(C)(C)C)OC3)c3cc[nH]c(=O)c23)ccc1C(=O)N1CCOCC1C (single isomer, unassigned) [Example 20-9, (2S,5S)-tert-butyl 5-(cyanomethyl)-5-(3-((3-methyl-4-((S or R)-3-methylmorpholine-4-carbonyl)phenyl)amino)-4-oxo-4,5-dihydro-1H-pyrazolo[4,3-c]pyridin-1-yl)tetrahydro-2H-pyran-2-carboxylate]
50 pM | 40 pM | N#CC[C@@]1(n2nc(Nc3ccc([C@]4(C(F)(F)F)CCCCN4)cc3)c3c(=O)[nH]ccc32)CCOC[C@@H]1F (single isomer, unassigned) [Example 5-265, 2-((3R,4R or 3S,4S)-3-fluoro-4-(4-oxo-3-((4-((S or R)-2-(trifluoromethyl)piperidin-2-yl)phenyl)amino)-4,5-dihydro-1H-pyrazolo[4,3-c]pyridin-1-yl)tetrahydro-2H-pyran-4-yl)acetonitrile]
90 pM | 510 pM | CN(C)S(=O)(=O)c1ccc(Nc2nn(C3(CC#N)CCN(C(=O)C4CC(F)(F)C4)CC3)c3cc[nH]c(=O)c23)cc1 [Example 9-7, 4-[(1-{4-(cyanomethyl)-1-[(3,3-difluorocyclobutyl)carbonyl]piperidin-4-yl}-4-oxo-4,5-dihydro-1H-pyrazolo[4,3-c]pyridin-3-yl)amino]-N,N-dimethylbenzenesulfonamide]

The next lines start with the compound.

Structure (SMILES) | IC50 [1] | IC50 [2]
CN(C)S(=O)(=O)c1ccc(Nc2nn([C@@]3(CC#N)CCN(C(=O)OC(C)(C)C)C[C@H]3F)c3cc[nH]c(=O)c23)cc1 [Example 5-18, tert-butyl (3R,4R)-4-(cyanomethyl)-4-(3-{[4-(dimethylsulfamoyl)phenyl]amino}-4-oxo-4,5-dihydro-1H-pyrazolo [4,3-c]pyridin-1-yl)-3-fluoropiperidine-1-carboxylate] | 100 pM | 120 pM
CC(C)(C)OC(=O)[C@@H]1CC[C@@](CC#N)(n2nc(Nc3ccc4c(c3)CN(CC(F)(F)F)S4(=O)=O)c3c(=O)[nH]ccc32)CO1 [Example 5-44, (2S,5S)-tert-butyl 5-(cyanomethyl)-5-(3-((1,1-dioxido-2-(2,2,2-trifluoroethyl)-2,3-dihydrobenzo[d]isothiazol-5-yl)amino)-4-oxo-4,5-dihydro-1H-pyrazolo[4,3-c]pyridin-1-yl)tetrahydro-2H-pyran-2-carboxylate] | 140 pM | 370 pM
CC(O)(c1ccc(Nc2nn([C@]3(CC#N)CCCOC3)c3cc[nH]c(=O)c23)cc1)C(F)(F)F (single isomer, unassigned) [Example 5-110, {(3S)-3-[4-oxo-3-({4-[(1S or 1R)-2,2,2-trifluoro-1-hydroxy-1-methylethyl]phenyl}amino)-4,5-dihydro-1H-pyrazolo[4,3-c]pyridin-1-yl]tetrahydro-2H-pyran-3-yl}acetonitrile] | 160 pM | 590 pM
COC(=O)N1CCC(CC#N)(n2nc(Nc3ccc4ncccc4c3)c3c(=O)[nH]ccc32)CC1 [Example 5-148, methyl 4-(cyanomethyl)-4-(4-oxo-3-(quinolin-6-ylamino)-4,5-dihydro-1H-pyrazolo[4,3-c]pyridin-1-yl)piperidine-1-carboxylate] | 80 pM | 840 pM
CC(C)(C)OC(=O)[C@@H]1CC[C@@](CC#N)(n2nc(Nc3ccc(S(=O)(=O)C4CC4)cc3)c3c(=O)[nH]ccc32)CO1 [Example 5-99, (2S,5S)-tert-butyl 5-(cyanomethyl)-5-(3-((4-(cyclopropylsulfonyl)phenyl)amino)-4-oxo-4,5-dihydro-1H-pyrazolo [4,3-c]pyridin-1-yl) tetrahydro-2H-pyran-2-carboxylate] | 50 pM | 140 pM
CC(C)S(=O)(=O)c1ccc(Nc2nn([C@@]3(CC#N)CCCC[C@H]3F)c3cc[nH]c(=O)c23)cc1 [Example 5-87, {(1R,2R)-2-fluoro-1-[3-({4-[(1-methylethyl)sulfonyl]phenyl}amino)-4-oxo-4,5-dihydro-1H-pyrazolo[4,3-c]pyridin-1-yl]cyclohexyl}acetonitrile] | 40 pM | 50 pM
CC(C)(C)OC(=O)c1ccc(Nc2nn(C3(CC#N)CCCC3)c3cc[nH]c(=O)c23)cc1 [Example 5-127, tert-butyl 4-((1-(1-(cyanomethyl)cyclopentyl)-4-oxo-4,5-dihydro-1H-pyrazolo[4,3-c]pyidin-3-yl)amino)benzoate] | 4760 pM | 30500 pM
Cc1cc(Nc2nn([C@]3(CC#N)CC[C@@H](C(=O)OC(C)(C)C)OC3)c3cc[nH]c(=O)c23)ccc1C(=O)N1CCSC1C (single isomer, unassigned) [Example 5-157, (2S,5S)-tert-butyl 5-(cyanomethyl)-5-(3-((3-methyl-4-((S or R)-2-methylthiazolidine-3-carbonyl)phenyl)amino)-4-oxo-4,5-dihydro-1H-pyrazolo[4,3-c]pyridin-1-yl)tetrahydro-2H-pyran-2-carboxylate] | 190 pM | 270 pM
CC(C)S(=O)(=O)c1ccc(Nc2nn([C@]3(CC#N)CC[C@@H](C(=O)OC(C)(C)C)OC3)c3cc[nH]c(=O)c23)cc1 [Example 5-98, (2S,5S)-tert-butyl 5-(cyanomethyl)-5-(3-((4-(isopropylsulfonyl)phenyl)amino)-4-oxo-4,5-dihydro-1H-pyrazolo[4,3-c]pyridin-1-yl)tetrahydro-2H-pyran-2-carboxylate] | 70 pM | 180 pM
CC(C)(C)OC(=O)[C@@H]1CC[C@@](CC#N)(n2nc(Nc3ccc([C@@H](N)C(F)(F)F)cc3)c3c(=O)[nH]ccc32)CO1 (single isomer, unassigned) [Example 5-51, (2S,5S)-tert-butyl 5-(3-((4-((R or S)-1-amino-2,2,2-trifluoroethyl)phenyl)amino)-4-oxo-4,5-dihydro-1H-pyrazolo [4,3-c]pyridin-1-yl)-5-(cyanomethyl)tetrahydro-2H-pyran-2-carboxylate] | 180 pM | 490 pM
CC(C)NC(c1ccc(Nc2nn([C@]3(CC#N)CC[C@@H](C(=O)OC(C)(C)C)OC3)c3cc[nH]c(=O)c23)cc1)C(F)(F)F (single isomer, unassigned) [Example 5-209, (2S,5S)-tert-butyl 5-(cyanomethyl)-5-(4-oxo-3-((4-((R or S)-2,2,2-trifluoro-1-(isopropylamino)ethyl)phenyl)amino)-4,5-dihydro-1H-pyrazolo [4,3-c]pyridin-1-yl)tetrahydro-2H-pyran-2-carboxylate] | 320 pM | 350 pM
CC(C)(C)OC(=O)[C@@H]1CC[C@@](CC#N)(n2nc(Nc3ccc(C(C)(O)C(F)(F)F)cc3)c3c(=O)[nH]ccc32)CO1 (single isomer, unassigned) [Example 5-170, (2S,5S)-tert-butyl 5-(cyanomethyl)-5-(4-oxo-3-((4-((S or R)-1,1,1-trifluoro-2-hydroxypropan-2-yl)phenyl)amino)-4,5-dihydro-1H-pyrazolo[4,3-c]pyridin-1-yl)tetrahydro-2H-pyran-2-carboxylate] | 140 pM | 480 pM
CC(C)(C)OC(=O)N1CCC(CC#N)(n2nc(Nc3ccc4c(c3)CCS4(=O)=O)c3c(=O)[nH]ccc32)CC1 [Example 5-82, tert-butyl 4-(cyanomethyl)-4-(3-((1,1-dioxido-2,3-dihydrobenzo[d]thiophen-5-yl)amino)-4-oxo-4,5-dihydro-1H-pyrazolo[4,3-c]pyridin-1-yl)piperidine-1-carboxylate] | 100 pM | 310 pM
